Measured values taken from patent US10647747B2, “Cyclosporin derivatives and uses thereof” (S&T Global Inc., priority 2010, dated 2020).
*1 amine or outer side, *2 acyl side, *3 side chain or, on linkers, in order; H or OH if unused. Where a SMILES comes first, the peptide text is derived from it. [ ]: non-standard residue; d: D form. ξ: configuration not given here. MeBmt = C/C=C/C[C@@H](C)[C@@H](O)[C@H](NC)C(=O)O; X1 = CN([C@H](SCCCN1CCOCC1)C(=O)[*:2])[*:1]; X2 = CCN(CC)CCCS[C@H](C(=O)[*:2])N(C)[*:1]; X6 = CCN(CC)CCS[C@H](C(=O)[*:2])N(C)[*:1]; NMeIle(3ξ) = CCC(C)[C@H](NC)C(=O)O; NMeL = CN[C@@H](CC(C)C)C(=O)O; NMeV = CN[C@H](C(=O)O)C(C)C; Abu = CC[C@H](N)C(=O)O

Test: Stability testing: epimerization of cyclosporin derivatives in methanol, monitored by HPLC
Assay type: physicochemical
Conditions: for Epimerization % after 168 hours: Table 11, MeOH at 50° C.-58° C.
[1] = Table 10, MeOH at 50° C., 29 hours
[2] = Table 10, MeOH at 50° C., 77 hours
[3] = Table 10, MeOH at 50° C., 125 hours

Compound C/C=C/C[C@@H](C)[C@@H](O)[C@H]1C(=O)N[C@@H](CC)C(=O)N(C)[C@H](SCCN(C)C)C(=O)N(C)[C@@H](CC(C)C)C(=O)N[C@@H](C(C)C)C(=O)N(C)[C@@H](CC(C)C)C(=O)N[C@@H](C)C(=O)N[C@H](C)C(=O)N(C)[C@@H](CC(C)C)C(=O)N(C)[C@@H](CC(C)C)C(=O)N(C)[C@@H](C(C)C)C(=O)N1C [drawing 1930] has an Epimerization % (Table 7, MeOH at 65° C., 2 hours) of ~12%, an Epimerization % (Table 7, MeOH at 65° C., 4 hours) of ~19% and an Epimerization % (Table 7, MeOH at 65° C., 6 hours) of ~23%.

In the case of C/C=C/C[C@@H](C)[C@@H](O)[C@H]1C(=O)N[C@@H](CC)C(=O)N(C)[C@H](SCCCN2CCOCC2)C(=O)N(C)[C@@H](CC(C)(C)O)C(=O)N[C@@H](C(C)C)C(=O)N(C)[C@@H](CC(C)C)C(=O)N[C@@H](C)C(=O)N[C@H](C)C(=O)N(C)[C@@H](CC(C)C)C(=O)N(C)[C@@H](CC(C)C)C(=O)N(C)[C@@H](C(C)C)C(=O)N1C [drawing 1936], the Epimerization % [1] is reported as 0%, the Epimerization % [2] is reported as 0% and the Epimerization % [3] is reported as 0%.

C/C=C/C[C@@H](C)[C@@H](O)[C@H]1C(=O)N[C@@H](CC)C(=O)N(C)[C@H](SCCCN2CCOCC2)C(=O)N(C)[C@@H](C(C)C)C(=O)N[C@@H](C(C)C)C(=O)N(C)[C@@H](CC(C)C)C(=O)N[C@@H](C)C(=O)N[C@H](C)C(=O)N(C)[C@@H](CC(C)C)C(=O)N(C)[C@@H](CC(C)C)C(=O)N(C)[C@@H](C(C)C)C(=O)N1C (cyclo(A[dA][NMeL][NMeL][NMeV][MeBmt][Abu][X1][NMeV]V[NMeL])) gave an Epimerization % [1] of 0%, an Epimerization % [2] of 0% and an Epimerization % [3] of 0%.

For C/C=C/C[C@@H](C)[C@@H](O)[C@H]1C(=O)N[C@@H](CC)C(=O)N(C)[C@H](SCCCN(CC)CC)C(=O)N(C)[C@@H](C(C)C)C(=O)N[C@@H](C(C)C)C(=O)N(C)[C@@H](CC(C)C)C(=O)N[C@@H](C)C(=O)N[C@H](C)C(=O)N(C)[C@@H](CC(C)C)C(=O)N(C)[C@@H](CC(C)C)C(=O)N(C)[C@@H](C(C)C)C(=O)N1C (cyclo(A[dA][NMeL][NMeL][NMeV][MeBmt][Abu][X2][NMeV]V[NMeL])), the Epimerization % [1] was 0%, the Epimerization % [2] was 0% and the Epimerization % [3] was 0%.

With C/C=C/C[C@@H](C)[C@@H](O)[C@H]1C(=O)N[C@@H](CC)C(=O)N(C)[C@H](SCCCN2CCOCC2)C(=O)N(C)[C@@H](CC(C)(C)OC)C(=O)N[C@@H](C(C)C)C(=O)N(C)[C@@H](CC(C)C)C(=O)N[C@@H](C)C(=O)N[C@H](C)C(=O)N(C)[C@@H](CC(C)C)C(=O)N(C)[C@@H](CC(C)C)C(=O)N(C)[C@@H](C(C)C)C(=O)N1C [drawing 1932] the “Epimerization % in MeOH at 65° C.” value (Table 9, 2 hours) was 0%, the “Epimerization % in MeOH at 65° C.” value (Table 9, 4 hours) was 0% and the “Epimerization % in MeOH at 65° C.” value (Table 9, 10 hours) was 0%. For the same compound, the “Epimerization % in MeOH at 65° C.” value (Table 9, 22 hours) was 0%, the “Epimerization % in MeOH at 65° C.” value (Table 9, 30 hours) was 0% and the “Epimerization % in MeOH at 65° C.” value (Table 9, 38 hours) was 0%.

For C/C=C/C[C@@H](C)[C@@H](O)[C@H]1C(=O)N[C@@H](CC)C(=O)N(C)[C@H](CSCCCN2CCOCC2)C(=O)N(C)[C@@H](CC(C)(C)O)C(=O)N[C@@H](C(C)C)C(=O)N(C)[C@@H](CC(C)C)C(=O)N[C@@H](C)C(=O)N[C@H](C)C(=O)N(C)[C@@H](CC(C)C)C(=O)N(C)[C@@H](CC(C)C)C(=O)N(C)[C@@H](C(C)C)C(=O)N1C, the “Epimerization % after 168 hours” value was 0%.

With C/C=C/C[C@@H](C)[C@@H](O)[C@H]1C(=O)N[C@@H](CC)C(=O)N(C)[C@H](COCCN(CC)CC)C(=O)N(C)[C@@H](CC(C)C)C(=O)N[C@@H](C(C)C)C(=O)N(C)[C@@H](CC(C)C)C(=O)N[C@@H](C)C(=O)N[C@H](C)C(=O)N(C)[C@@H](CC(C)C)C(=O)N(C)[C@@H](CC(C)C)C(=O)N(C)[C@@H](C(C)C)C(=O)N1C the “Epimerization % after 168 hours” value was 0%.

For C/C=C/C[C@@H](C)[C@@H](O)[C@H]1C(=O)N[C@@H](CC)C(=O)N(C)[C@H](COCCN(CC)CC)C(=O)N(C)[C@@H](CC(C)(C)O)C(=O)N[C@@H](C(C)C)C(=O)N(C)[C@@H](CC(C)C)C(=O)N[C@@H](C)C(=O)N[C@H](C)C(=O)N(C)[C@@H](CC(C)C)C(=O)N(C)[C@@H](CC(C)C)C(=O)N(C)[C@@H](C(C)C)C(=O)N1C, the “Epimerization % after 168 hours” value was 0%.

With C/C=C/C[C@@H](C)[C@@H](O)[C@H]1C(=O)N[C@@H](CC)C(=O)N(C)[C@H](CSCCCN(CC)CC)C(=O)N(C)[C@@H](CC(C)(C)O)C(=O)N[C@@H](C(C)C)C(=O)N(C)[C@@H](CC(C)C)C(=O)N[C@@H](C)C(=O)N[C@H](C)C(=O)N(C)[C@@H](CC(C)C)C(=O)N(C)[C@@H](CC(C)C)C(=O)N(C)[C@@H](C(C)C)C(=O)N1C the “Epimerization % after 168 hours” value was 0%.

In the case of C/C=C/C[C@@H](C)[C@@H](O)[C@H]1C(=O)N[C@@H](CC)C(=O)N(C)[C@H](CSCCCN(C)C)C(=O)N(C)[C@@H](CC(C)(C)O)C(=O)N[C@@H](C(C)C)C(=O)N(C)[C@@H](CC(C)C)C(=O)N[C@@H](C)C(=O)N[C@H](C)C(=O)N(C)[C@@H](CC(C)C)C(=O)N(C)[C@@H](CC(C)C)C(=O)N(C)[C@@H](C(C)C)C(=O)N1C, the “Epimerization % after 168 hours” value is reported as 0%.

For C/C=C/C[C@@H](C)[C@@H](O)[C@H]1C(=O)N[C@@H](CC)C(=O)N(C)[C@H](CSCCN(C)C)C(=O)N(C)[C@@H](CC(C)(C)O)C(=O)N[C@@H](C(C)C)C(=O)N(C)[C@@H](CC(C)C)C(=O)N[C@@H](C)C(=O)N[C@H](C)C(=O)N(C)[C@@H](CC(C)C)C(=O)N(C)[C@@H](CC(C)C)C(=O)N(C)[C@@H](C(C)C)C(=O)N1C, the “Epimerization % after 168 hours” value was 0%.

Work on C/C=C/C[C@@H](C)[C@@H](O)[C@H]1C(=O)N[C@@H](CC)C(=O)N(C)[C@H](SCCCN(CC)CC)C(=O)N(C)[C@@H](C(C)CC)C(=O)N[C@@H](C(C)C)C(=O)N(C)[C@@H](CC(C)C)C(=O)N[C@@H](C)C(=O)N[C@H](C)C(=O)N(C)[C@@H](CC(C)C)C(=O)N(C)[C@@H](CC(C)C)C(=O)N(C)[C@@H](C(C)C)C(=O)N1C (some centres unmarked) (cyclo(A[dA][NMeL][NMeL][NMeV][MeBmt][Abu][X2][NMeIle(3ξ)]V[NMeL])) yielded an Epimerization % [1] of 0%, an Epimerization % [2] of 0% and an Epimerization % [3] of 0%.

With C/C=C/C[C@@H](C)[C@@H](O)[C@H]1C(=O)N[C@@H](CC)C(=O)N(C)[C@H](CSCCCN2CCCCC2)C(=O)N(C)[C@@H](CC(C)(C)O)C(=O)N[C@@H](C(C)C)C(=O)N(C)[C@@H](CC(C)C)C(=O)N[C@@H](C)C(=O)N[C@H](C)C(=O)N(C)[C@@H](CC(C)C)C(=O)N(C)[C@@H](CC(C)C)C(=O)N(C)[C@@H](C(C)C)C(=O)N1C the “Epimerization % after 168 hours” value was 0%.

In the case of C/C=C/C[C@@H](C)[C@@H](O)[C@H]1C(=O)N[C@@H](CC)C(=O)N(C)[C@H](CSCCN(CC)CC)C(=O)N(C)[C@@H](CC(C)C)C(=O)N[C@@H](C(C)C)C(=O)N(C)[C@@H](CC(C)C)C(=O)N[C@@H](C)C(=O)N[C@H](C)C(=O)N(C)[C@@H](CC(C)C)C(=O)N(C)[C@@H](CC(C)C)C(=O)N(C)[C@@H](C(C)C)C(=O)N1C (single isomer, unassigned), the “Epimerization % after 168 hours” value is reported as 0%.

C/C=C/C[C@@H](C)[C@@H](O)[C@H]1C(=O)N[C@@H](CC)C(=O)N(C)[C@H](SCCCN2CCOCC2)C(=O)N(C)[C@@H](C(C)CC)C(=O)N[C@@H](C(C)C)C(=O)N(C)[C@@H](CC(C)C)C(=O)N[C@@H](C)C(=O)N[C@H](C)C(=O)N(C)[C@@H](CC(C)C)C(=O)N(C)[C@@H](CC(C)C)C(=O)N(C)[C@@H](C(C)C)C(=O)N1C (some centres unmarked) (cyclo(A[dA][NMeL][NMeL][NMeV][MeBmt][Abu][X1][NMeIle(3ξ)]V[NMeL])) showed an Epimerization % [1] of 0%, an Epimerization % [2] of 0% and an Epimerization % [3] of 0%.

For C/C=C/C[C@@H](C)[C@@H](O)[C@H]1C(=O)N[C@@H](CC)C(=O)N(C)[C@H](SCCN(CC)CC)C(=O)N(C)[C@@H](C(C)CC)C(=O)N[C@@H](C(C)C)C(=O)N(C)[C@@H](CC(C)C)C(=O)N[C@@H](C)C(=O)N[C@H](C)C(=O)N(C)[C@@H](CC(C)C)C(=O)N(C)[C@@H](CC(C)C)C(=O)N(C)[C@@H](C(C)C)C(=O)N1C (some centres unmarked) (cyclo(A[dA][NMeL][NMeL][NMeV][MeBmt][Abu][X6][NMeIle(3ξ)]V[NMeL])), the Epimerization % [1] was ~4%, the Epimerization % [2] was ~10% and the Epimerization % [3] was ~16%.

In the case of C/C=C/C[C@@H](C)[C@@H](O)[C@H]1C(=O)N[C@@H](CC)C(=O)N(C)[C@H](SCCCN2CCOCC2)C(=O)N(C)[C@@H](CC(C)(C)O)C(=O)N[C@@H](C(C)C)C(=O)N(C)[C@@H](CC(C)C)C(=O)N[C@@H](C)C(=O)N[C@H](C)C(=O)N(C)[C@@H](CC(C)C)C(=O)N(C)[C@@H](CC(C)C)C(=O)N(C)[C@@H](C(C)C)C(=O)N1C [drawing 1931], the “Epimerization % in MeOH at 65° C.” value (Table 8, 2 hours) is reported as 0%, the “Epimerization % in MeOH at 65° C.” value (Table 8, 4 hours) is reported as 0% and the “Epimerization % in MeOH at 65° C.” value (Table 8, 6 hours) is reported as 0%. The “Epimerization % in MeOH at 65° C.” value (Table 8, 8 hours) was “Less than 1%” and the “Epimerization % in MeOH at 65° C.” value (Table 8, 10 hours) was ~10%.

With C/C=C/C[C@@H](C)[C@@H](O)[C@H]1C(=O)N[C@@H](CC)C(=O)N(C)[C@H](COCCN(C)C)C(=O)N(C)[C@@H](CC(C)C)C(=O)N[C@@H](C(C)C)C(=O)N(C)[C@@H](CC(C)C)C(=O)N[C@@H](C)C(=O)N[C@H](C)C(=O)N(C)[C@@H](CC(C)C)C(=O)N(C)[C@@H](CC(C)C)C(=O)N(C)[C@@H](C(C)C)C(=O)N1C the “Epimerization % after 168 hours” value was 0%.
